In US20230381378A1, “METHODS AND COMPOSITIONS FOR THE TREATMENT OF IMPLANT ASSOCIATED COMPLICATIONS” (The Board of Trustees of the Leland Stanford Junior …, priority 2020, published 2023):

Molecular target: T1, Rac2 (Mus musculus, UniProt Q05144)
T1 construct: reduced the expression of immune cell-specific Rac2 in the FBR capsules by about 80%; from tissue; host or cells: FBR capsule tissue around mechanically stimulating implants in C57/BL6 wild-type mice (Jackson labs Stock No: 000664)
Test: Rac inhibition in the mechanically stimulating implant (MSI) mouse model of foreign body response
Type: in vivo
Conditions: C57/BL6 wildtype mice
Description: Implantation Experiments. Standard silicone implants and MS's were implanted in C57/BL6 mice for either 2 weeks or 1 month. A 2 cm incision was made on the dorsum of the mouse and a subcutaneous pocket was created. Control implants were placed in the subcutaneous pocket and the incision was closed using 6-0 nylon suture or staples. For vibration-enabled implants, the implants were placed into a subcutaneous pocket, similar to the procedure described above and wires were guided through the skin using a modified seldinger technique. 3V batteries with an amplitude of 1.38 G and a frequency of 203 Hz were used to mimic human conditions. MS's were vibrated for 1 hour daily from day 4 (D4) post implantation to day 11 (D11). This time period was chosen based on previous studies, showing that increased mechanical stress during this period effectively induces fibrosis.
Histology and Trichrome staining. At each timepoint, the mice were euthanized, and the implants were resected en bloc with the surrounding scar tissue. The implants were removed and the scar tissue along with the skin was fixed in 4% paraformaldehyde overnight and embedded in paraffin. Scar tissue and implants from humans were collected from patients and processed within an hour. For analysis of the capsule, paraffin sections were stained with trichrome (SigmaAldrich) as described previously. Imaging was performed on a Leica DM5000 B upright microscope. Image analysis software (Image J) was used to quantify collagen staining.
Immunostaining. Immunohistological staining was performed on paraffin sections as described previously. Briefly, heat-based antigen retrieval was followed by blocking with 5% goat serum in PBS. The following primary antibodies were used at a 1:200 dilution (as recommended by the manufacturer) and incubated overnight at 4° C.: anti-a-SMA (Abcam ab5694) or anti-Rac2 (Fischer Scientific, DF6273). Incubation of primary antibody-stained specimens with Alexa Fluor 488 secondary antibody (Thermo Fisher Scientific) was performed at a 1:400 dilution for 1 hour at room temperature. Sections were subsequently mounted using Fluoroshield (F6057, Sigma, Saint Louis, MO) with 4′, 6-diamidino-2-phenylindole (DAPI) to stain cell nuclei. Imaging was performed on a Leica DM5000 B upright microscope. Image analysis was performed using Matlab.
Rac Inhibition Experiments. EHT 1864 2HCl, a potent Rac family GTPase inhibitor, was acquired from Selleckchem (Houston, TX). MS's were implanted in C57/BL6 wildtype mice for 28 days utilizing the modified Seldinger technique described above. Mice were injected with EHT 1864 2HCl (10 mg/kg/day) (n=4) or saline (n=4) from Days 0-26. FBR capsule tissue was explanted on day 28 and processed for histologic analysis.
Statistical Analyses. Results are presented as mean±SEM. Standard data analysis was performed using student's ttests. ANOVA with posthoc tukey's test was used for multiple comparisons. Results were considered significant for *p<0.05.

[1] = 10 mg/kg/day Days 0-26 vs saline, day 28
[2] = local injection 10 mg/kg/day Days 0-26 vs saline, capsule explanted day 28

Cl.Cl.O=c1cc(CN2CCOCC2)occ1OCCCCCSc1ccnc2cc(C(F)(F)F)ccc12 [EHT 1864 2HCl]
capsule thickness (H&E staining) [1]: decreased | collagen deposition (trichrome staining) [1]: decreased | overall FBR [1]: significantly reduced | reduction in the activation of myofibroblasts in MSI capsules (aSMA immunostaining) [2]: about 90% | reduction of expression of immune cell-specific Rac2 in the FBR capsules (immunostaining, percent area positive) [2]: about 80%
